Measurements reported in article doi:10.1101/2021.10.07.463234v2 (biorxiv, 2021).
Counter-ions that a name gives are not always drawn.

Target: SARS-CoV-2 Mac1 (Severe acute respiratory syndrome coronavirus 2, UniProt P0DTD1)
Assay: biochemical
Details: for inhibition at 100 µM: read-out: %inhibition; for %inhibition: 100 µM, inhibitor

SMILES | inhibition at 100 µM | %inhibition
N#C[C@@H]1CCCN1C(=O)CNC12CC3CC(CC(O)(C3)C1)C2 [Vildagliptin (LAF-237)] | 11.7% | –
CCOc1ccc(NC(=O)CC(C)O)cc1 (stereo not drawn) [Bucetin] | 2.67% | –
CCC(=O)NS(=O)(=O)c1ccc(-c2c(-c3ccccc3)noc2C)cc1 [Parecoxib] | – | 0%
Nc1ccc(C(=O)O)c(O)c1 [Sodium 4-Aminosalicylate] | 0% | –
COc1cc(Nc2ncc(F)c(Nc3ccc4c(n3)N(COP(=O)(O)O)C(=O)C(C)(C)O4)n2)cc(OC)c1OC [R788 (Fostamatinib) Disodium] | – | 15.48%
O=C(NCCN1CCOCC1)c1ccc(Cl)cc1 [Moclobemide (Ro 111163)] | 0% | –
C#Cc1cccc(Nc2ncnc3cc(OC)c(OCCCCCCC(=O)NO)cc23)c1 [CUDC-101] | 6.86% | –
CCCCCCCCCCCCCCCCOc1nc2ccc(C)cc2c(=O)o1 [Cetilistat] | 8.35% | –
COc1cc(C(=O)NS(=O)(=O)c2ccccc2C)ccc1Cc1cn(C)c2ccc(NC(=O)OC3CCCC3)cc12 [Zafirlukast] | 0% | –
CCn1cc(C(=O)O)c(=O)c2cnc(N3CCNCC3)nc21 [Pipemidic acid] | 0% | –
COc1nc2ccc(Br)cc2cc1[C@@H](c1ccccc1)[C@@](O)(CCN(C)C)c1cccc2ccccc12 [Bedaquiline fumarate] | – | 0%
Cc1c(Cl)cccc1Nc1ccccc1C(=O)O [Tolfenamic Acid] | 16.4% | –
CC(C)NC[C@H](O)COc1ccc(CCOCC2CC2)cc1 [Levobetaxolol HCl] | 12.1% | –
C[C@@H]1O[C@@H](OC[C@H]2O[C@@H](Oc3c(-c4ccc(OCCO)c(OCCO)c4)oc4cc(OCCO)cc(O)c4c3=O)[C@H](O)[C@@H](O)[C@@H]2O)[C@H](O)[C@H](O)[C@H]1O [Troxerutin] | 0% | –
Cc1cccc(C)c1NC1=NCCCS1 [Xylazine HCl] | 25.3% | –
COc1ccc(C(Cl)=C(c2ccc(OC)cc2)c2ccc(OC)cc2)cc1 [Chlorotrianisene] | 0% | –
COCCc1ccc(OCC(O)CNC(C)C)cc1 (stereo not drawn) [Metoprolol] | – | 3.241%
CCOC(=O)n1ccn(C)c1=S [Carbimazole] | 0% | –
CCCCS(=O)(=O)N[C@@H](Cc1ccc(OCCCCC2CCNCC2)cc1)C(=O)O [Tirofiban Hydrochloride] | 9.42% | –
C[C@@H]1C[C@H]2[C@@H]3CCC4=CC(=O)C=C[C@]4(C)[C@@]3(Cl)[C@@H](O)C[C@]2(C)[C@@]1(OC(=O)c1ccco1)C(=O)CCl [Mometasone furoate] | 7.49% | –
OC(c1ccccc1)(c1ccccc1)C1CCNCC1 [Azacyclonol] | 0% | –
CNCCc1ccccn1 [Betahistine mesylate] | 0% | –
CC(C)(Oc1ccc(C2CC2(Cl)Cl)cc1)C(=O)O (stereo not drawn) [Ciprofibrate] | 20.7% | –
CC(C)[C@H](O)C(=O)N[C@@H](C)C(=O)N[C@@H]1C(=O)N(C)CCc2ccccc21 [Semagacestat (LY450139)] | 0% | –
C[C@H](Nc1ncnc2nc[nH]c12)c1cc2cccc(Cl)c2c(=O)n1-c1ccccc1 [Duvelisib (IPI-145, INK1197)] | 2.52% | –
CCCCCCCCCCCC[N+](C)(C)CCOc1ccccc1 [Domiphen Bromide] | 0.79% | –
C[C@]12CC[C@@H]3c4ccc(OS(=O)(=O)O)cc4CC[C@H]3[C@@H]1CCC2=O [Estropipate] | 8.24% | –
Cc1cc(C)c2c(c1)[C@@H](N(Cc1cc(C(F)(F)F)cc(C(F)(F)F)c1)c1nnn(C)n1)CCCN2C[C@H]1CC[C@H](C(=O)O)CC1 [Evacetrapib (LY2484595)] | 28.7% | –
CC(C)(C(=O)O)c1ccc(C(O)CCCN2CCC(C(O)(c3ccccc3)c3ccccc3)CC2)cc1 (stereo not drawn) [Fexofenadine HCl] | 9.61% | –
COC(=O)N[C@H](C(=O)N1CCC[C@H]1c1nc(-c2ccc3c(c2)O[C@@H](c2ccccc2)n2c-3cc3cc(-c4c[nH]c([C@@H]5CCCN5C(=O)[C@@H](NC(=O)OC)C(C)C)n4)ccc32)c[nH]1)C(C)C [Elbasvir] | 8.16% | –
